Data reported in US20050220779A1, “Integrin linked kinase modulation of macrophage activation” (priority 2001, published 2005).

Legend:
[1] = system: BALB/c cells (primary peritoneal macrophages); assay: LPS-IFN-γ-induced macrophage NO production (Griess nitrite assay), BALB/c cells; format: cell-based, mouse; conditions: 50 μM, 24 h; for NO release (%): relative to DMSO treated cells; for inhibition at 50 µM: Mus musculus, Peritoneal macrophage
Experimental: (§1) Isolation of primary mouse macrophages. Peritoneal exudate macrophages were isolated by peritoneal lavage with ice-cold sterile physiological saline 24 h after intraperitoneal injection of BALB/c and CB57BL/6 mice with 0.3 ml of sterile Zymosan A (1 mg/0.5 ml 0.9% saline). Cells were washed, resuspended in RPMI 1640 supplemented with 2 mM L-glutamine, 100 units/ml penicillin, 100 μg/ml streptomycin, and 5% FBS.
(§2) Treatment of primary macrophages and RAW 264.7 cells. Primary macrophages (1.5×10^5 cells/well) and RAW 264.7 (4×10^4 cells/well) cells were grown in 96-well plates (nitrite assay), or 6-well plates (2×10^6 cells/well) for measurement of iNOS and COX-2 expression. Following 3 h incubation, at 37 C, 5% CO2 (macrophages were allowed to attach) cells were stimulated with LPS (0.5 μg/ml) and IFN-γ (100 U/ml) in the absence or presence of various concentrations of ILK inhibitors (all treatments were replicated six times). Cells were incubated for an additional 24 h, and cell free culture supernatants from each well were collected for NO and cytokine determination. The remaining cells were stained with crystal violet to determine effect of the inhibitors on cell survival.
(§3) NO production. Following stimulation, the production of NO was determined by assaying culture supernatants for NO2^−, a stable reaction product of NO with molecular oxygen. Briefly, 100 μl of culture supernatant was reacted with an equal volume of Griess reagent at room temperature for 10 min. The absorbance at 550 nm was determined. All measurements were performed six times. The concentration of NO2^−was calculated by comparison with a standard curve prepared using NaNO2.
(§4) Effects of ILK inhibitors on LPS-IFN-γ-induced NO release. […] […] To compare the effect of the compounds across three different cell types, the NO release for each cell type was expressed relative to DMSO treated cells. […] For example, macrophages from Balb/c and C57BL/6 mice responded similarly to the treatment with the compounds.

[2] = system: C57BL/6 cells (primary peritoneal macrophages); assay: LPS-IFN-γ-induced macrophage NO production (Griess nitrite assay), C57BL/6 cells; format: cell-based, mouse; conditions: 50 μM, 24 h; for NO release (%): relative to DMSO treated cells; for inhibition at 50 µM: Mus musculus, Peritoneal macrophage
Experimental: as §1, §2, §3, §4

[3] = system: BALB/c cells (primary peritoneal macrophages); assay: Cell survival by crystal violet staining, BALB/c cells; format: cell-based; conditions: 24 h, 50 μM
Experimental: (§5) Treatment of primary macrophages and RAW 264.7 cells. […] Following 3 h incubation, at 37 C, 5% CO2 (macrophages were allowed to attach) cells were stimulated with LPS (0.5 μg/ml) and IFN-γ (100 U/ml) in the absence or presence of various concentrations of ILK inhibitors (all treatments were replicated six times). Cells were incubated for an additional 24 h, and cell free culture supernatants from each well were collected for NO and cytokine determination. The remaining cells were stained with crystal violet to determine effect of the inhibitors on cell survival.
(§6) Effect of ILK Inhibitors on suppression of NO production and cell survival. Twenty-four hours following treatment with the ILK inhibitors, aliquots from the cell-free supernatants were assayed for NO and IL-6 release. Surviving cells were stained and fixed (crystal violet 0.05% in 20% ethanol), to determine if the decrease in NO production was related to a decrease in cell number due to toxicity of the compounds.

[4] = system: C57BL/6 cells (primary peritoneal macrophages); assay: Cell survival by crystal violet staining, C57BL/6 cells; format: cell-based; conditions: 50 μM, 24 h, DMSO-treated = 100%
Experimental: as §5, §6

[5] = system: RAW 264.7 cells; assay: Cell survival by crystal violet staining, RAW 264.7 cells; format: cell-based; conditions: 50 μM, 24 h, DMSO-treated = 100%
Experimental: as §2
Effect of ILK Inhibitors on suppression of NO production and cell survival. Twenty-four hours following treatment with the ILK inhibitors, aliquots from the cell-free supernatants were assayed for NO and IL-6 release. Surviving cells were stained and fixed (crystal violet 0.05% in 20% ethanol), to determine if the decrease in NO production was related to a decrease in cell number due to toxicity of the compounds. […] Only those compounds that induced strong inhibition of NO release, and caused no significant cell death were selected for further evaluation.

[6] = system: iNOS; assay: iNOS protein expression in LPS-IFN-γ stimulated macrophages (western blot); format: cell-based, murine; conditions: LPS-IFN-γ stimulated macrophages, western blot
Experimental: Western blot analysis. After incubation with the indicated stimuli in the presence of ILK inhibitors, cells (duplicate samples, 2×10^6cell/6-wells plate) were washed in PBS and lysed on ice in 60 μl of lysis buffer. The protein content of each sample was determined using the Bradford protein assay kit (Bio-Rad, Richmond, Calif.). Absorbance was measured at 750 nm with a Beckman DU530 spectrophotometer (Palo Alto, Calif.). Proteins were mixed with […] sample buffer. Following separation of proteins by SDS-PAGE, using 8% bis-acrylamide in the separation gel, the proteins were transferred from the gels onto PVDF membranes using a MiniProtean III Cell (Bio-Rad), at 100 V for 1.5 h. Equal amounts of protein (5 μg) were loaded onto SDS-PAGE gels and examined by Western blot analysis with anti-Actin, anti-iNOS, anti-COX-2 murine monoclonal antibodies according to the manufacturers specifications (Transduction Laboratories). Primary Abs, in 5% blocking buffer (5% NFM/TTBS), were incubated with blots 2 h or overnight at 4° C., followed by incubation with peroxidase-conjugated secondary antibody. Chemiluminescence substrates were used to reveal positive bands. The bands were exposed on x-ray films. […] The Multi-Analyst/PC system from Biorad is being used to quantitate the bands of the expressed protein on the film. […] White light is chosen as the selected light source, thus the signal strength is measured in OD (optic density) units. […]
Effects of ILK inhibitors on the LPS-IFN-γ-induced iNOS and COX-2 expression NO production requires that iNOS be enzymatically activity, therefore experiments were performed to examine whether the inhibitory effect of ILK inhibitors was mediated by […] iNOS protein synthesis or effects on the activity of existing enzyme. Stimulated cells were treated with ILK inhibitors (25 μM), and lysed 16 h later and a western blot analysis was performed to quantitate iNOS protein expression. […]

SMILES	NO release (%) [1]	inhibition at 50 µM [1]	NO release (%) [2]	inhibition at 50 µM [2]	Survival (%) ([3]; BALB/c, mouse)	Survival (%) [4]	Survival (%) [5]	iNOS protein expression (in words) [6]	Survival (%) ([3]; BALB/c cells, DMSO-treated = 100%)
N=C(N)N/N=C/c1ccc(Cl)cc1Cl [KP-16735]	−4.2%	106%	−7.0%	114%	73%	49%	51%	significantly inhibited the expression of iNOS protein	
Oc1ccc2c(c1)CC1NCCc3cc(O)c(O)c-2c31 (stereo not shown) [KP-21849, 5,6,6a,7-Tetrahydro-4H-dibenzo[de,g]quinoline-1,2,9-triol]	−4.2%	110%	−8.0%	118%		44%	51%	significantly inhibited the expression of iNOS protein	41%
